Results: patent US4252788A, “Dental composition for preventing and inhibiting dental caries” (Toyo Seiyaku Kasei Co., Ltd., priority 1979, dated 1981)

Legend:
[1] = Ability to inhibit decalcification of the hard tissue (dissolved calcium from human dentin powder in acid solution)
Procedure: The ability to inhibit decalcification of the hard tissue was estimated according to the method described in Nishino. Osaka University Shigaku Zasshi, Vol. 14, page 1 (1969). That is, firstly, a certain amount of human dentin powder was treated with a composition (aqueous solution of a molybdate compound) to be tested for certain minutes and then unbonded excess components were removed by washing with water to obtain a sample powder. Then, the sample powder was treated with an acid solution (decalcification) and the amount of calcium in the solution, which was dissolved in the solution by action of the acid, was determined (sample calcium content). Similarly, untreated dentin powder was added to an acid solution and the amount of calcium in the acid solution was determined (control calcium content). From these values, a inhibition rate of decalcification was calculated as follows: [formula]

[2] = tested on: protease (collagenase or trypsin); experiment: Ability to inhibit digestion of the soft tissue (human decalcified dentin powder in opaque agar plate, clear zone with protease); assay type: biochemical; settings: sodium fluoride
Procedure: The ability to inhibit digestion of the soft tissue was estimated according to the method described in Yanagida et al, Shonishikagaku Zasshi, Vol. 9, page 39 (1971). That is, various molybdate compounds (Na2 MoO2 F4, K2 MoO2 F4, (NH4)2 MoO2 F4, Na2 MoO4 or K2 MoO4) were dissolved in deionized water in various concentrations to obtain various compositions to be tested. A certain amount of human decalcified dentin powder was treated with each of the above prepared compositions for certain minutes and then unbonded excess components were removed by dialysis to obtain a sample powder. Then, an opaque agar plate was prepared from a mixture of agar and the sample powder, and a protease (collagenase or trypsin) was added to the plate. The inhibiting ability was estimated by observing whether a clear zone was formed on the plate or not (the clear zone is formed by dissolution of the powder with the enzyme, and the formation thereof means digestion of the soft tissue).

[3] = In vivo inhibition of dental caries in rats on cariogenic diet inoculated with Streptococcus mutans; design: species or system Male Sprague-Dawley rats; settings: for Average caries score (± S.E.), Dm (moderate dental caries) / Average caries score (± S.E.), Ds (slight dental caries) / Average caries score (± S.E.), Dx (extensive dental caries) / Inhibition rate of dental caries, Dm (moderate dental caries) / Inhibition rate of dental caries, Ds (slight dental caries) / Inhibition rate of dental caries, Dx (extensive dental caries): 8 weeks
Procedure: Further, the ability of the composition of the present invention to inhibit dental caries was tested in vivo as follows:
45 Male Sprague-Dawley rats (18 days old) were divided into three groups (15 rats/group). These rats were kept with the following cariogenic diet and deionized water during the test period (8 weeks).
0.2 ml of a culture broth, which was prepared by anaerobic cultivation of Streptococcus mutans in brain-heart-infusion broth at 37° C. for 24 hours, was orally administered to each rat once a day for 5 days. On the first, 7th, 14th, 21st, 28th and 35th days of the test period, 10% solution of (NH4)2 MoO2 F4 in deionized water (pH 7.5) was applied twice to mandibular molar of each rat of the first group with a cotton applicator and dried for 5 minutes. Likewise, 2% solution of NaF in deionized water (pH 3.6) was applied to each rat of the second group. As a control, mere deionized water was also applied to each rat of the third group. After 8 weeks, rats were sacrificed and mandibula of each rat was isolated and autoclaved at 121° C. for 5 minutes to remove gingiva and the like attached thereto. After drying, the severity of dental caries of each isolated mandibular molar was estimated with a caries score according to the method described in P. H. Keyes, J. Dent. Res., […], 1088-1099 (1958). In Tables 3 and 4, symbols of the severity of dental caries mean as follows:
Dm: moderate dental caries (dental caries extends to a quarter to three quarters part between enamel and dental pulp); and
Dx: extensive dental caries (dental caries extends to more than three quarters part between enamel and dental pulp).
The inhibition rate of dental caries is calculated as follows: [formula]

mice = experiment: LD50 in mice; assay type: in vivo
Text: Further, the dental composition of the present invention is useful from a viewpoint of toxicity since the molybdate compounds used in the present invention have toxicity as low as that of other medicaments commonly used for inhibition of dental caries.

[4] = 0.5 hr decalcification, Mo 4%, pH 7
[5] = 1 hr decalcification, Mo 4%, pH 7
[6] = 3 hrs decalcification, Mo 4%, pH 7
[7] = 5 hrs decalcification, Mo 4%, pH 7
[8] = 0.5 hr decalcification, Mo 1%, pH 3
[9] = 0.5 hr decalcification, Mo 1%, pH 5
[10] = 1 hr decalcification, Mo 1%, pH 3
[11] = 1 hr decalcification, Mo 1%, pH 5
[12] = 3 hrs decalcification, Mo 1%, pH 3
[13] = 3 hrs decalcification, Mo 1%, pH 5
[14] = 5 hrs decalcification, Mo 1%, pH 3
[15] = 5 hrs decalcification, Mo 1%, pH 5
[16] = 1st group, 10% solution, pH 7.5

Row | Compound | Inhibition rate of decalcification [1, 4] | Inhibition rate of decalcification [1, 5] | Inhibition rate of decalcification [1, 6] | Inhibition rate of decalcification [1, 7] | Inhibition rate of decalcification [1, 8] | Inhibition rate of decalcification [1, 9] | Inhibition rate of decalcification [1, 10] | Inhibition rate of decalcification [1, 11] | Inhibition rate of decalcification [1, 12] | Inhibition rate of decalcification [1, 13] | Inhibition rate of decalcification [1, 14] | Inhibition rate of decalcification [1, 15] | other results
1 | [K+].[K+].[O]=[Mo](=[O])([O-])[O-] [K2 MoO4, potassium orthomolybdate] | 36.30% | 38.64% | 43.55% | 36.24% | – | – | – | – | – | – | – | – | Inhibition rate of decalcification ([1]; 0.5 hr decalcification, Mo 4%, pH 3): 30.80%; Inhibition rate of decalcification ([1]; 1 hr decalcification, Mo 4%, pH 3): 33.33%; Inhibition rate of decalcification ([1]; 3 hrs decalcification, Mo 4%, pH 3): 35.42%; Inhibition rate of decalcification ([1]; 5 hrs decalcification, Mo 4%, pH 3): 34.52%
2 | [Na+].[Na+].[O]=[Mo](=[O])([O-])[O-] [Na2 MoO4, sodium orthomolybdate] | 44.04% | 42.17% | 33.80% | 35.42% | – | – | – | – | – | – | – | – | Inhibition rate of decalcification ([1]; 0.5 hr decalcification, Mo 4%, pH 5): 45.61%; Inhibition rate of decalcification ([1]; 1 hr decalcification, Mo 4%, pH 5): 47.60%; Inhibition rate of decalcification ([1]; 3 hrs decalcification, Mo 4%, pH 5): 49.25%; Inhibition rate of decalcification ([1]; 5 hrs decalcification, Mo 4%, pH 5): 47.82%
3 | [F-].[Na+] [NaF, sodium fluoride, reference compound] | – | – | – | – | – | – | – | – | – | – | – | – | Inhibition of protease digestion (in words) [2]: does not inhibit protease digestion of the soft tissue; Inhibition of protease digestion (in words) ([2]; listed as sodium fluoride): no inhibition of protease digestion; Average caries score (± S.E.), Dm (moderate dental caries) ([3]; 2nd group, 2% solution, pH 3.6): 2.3 ± 0.5; Average caries score (± S.E.), Ds (slight dental caries) ([3]; 2nd group, 2% solution, pH 3.6): 6.9 ± 0.8; Average caries score (± S.E.), Dx (extensive dental caries) ([3]; 2nd group, 2% solution, pH 3.6): 1.1 ± 0.4; Inhibition rate of dental caries, Dm (moderate dental caries) ([3]; 2nd group, 2% solution, pH 3.6): 43.9%; Inhibition rate of dental caries, Ds (slight dental caries) ([3]; 2nd group, 2% solution, pH 3.6): 19.8%; Inhibition rate of dental caries, Dx (extensive dental caries) ([3]; 2nd group, 2% solution, pH 3.6): 65.6%; Inhibition rate of decalcification ([1]; 0.5 hr decalcification, reference NaF 2%, pH 5): 43.91%; Inhibition rate of decalcification ([1]; 0.5 hr decalcification, reference NaF 2%, pH 7): 41.94%; Inhibition rate of decalcification ([1]; 1 hr decalcification, reference NaF 2%, pH 5): 40.66%; Inhibition rate of decalcification ([1]; 1 hr decalcification, reference NaF 2%, pH 7): 36.36%; Inhibition rate of decalcification ([1]; 3 hrs decalcification, reference NaF 2%, pH 5): 47.97%; Inhibition rate of decalcification ([1]; 3 hrs decalcification, reference NaF 2%, pH 7): 36.59%; Inhibition rate of decalcification ([1]; 5 hrs decalcification, reference NaF 2%, pH 5): 38.76%; Inhibition rate of decalcification ([1]; 5 hrs decalcification, reference NaF 2%, pH 7): 36.93%
4 | [Na+].[Na+].[O]=[Mo-2](=[O])([F])([F])([F])[F] [Na2 MoO2 F4, sodium dioxotetrafluoromolybdate] | – | – | – | – | 63.30% | 62.39% | 64.65% | 50.51% | 66.67% | 49.59% | 66.28% | 49.43% | –
5 | [NH4+].[NH4+].[O]=[Mo-2](=[O])([F])([F])([F])[F] [(NH4)2 MoO2 F4, ammonium dioxotetrafluoromolybdate] | – | – | – | – | 44.43% | 44.43% | 34.60% | 45.45% | 36.47% | 42.39% | 37.27% | 43.12% | LD50 (p.o.) (mice): 124 mg/kg; Average caries score (± S.E.), Dm (moderate dental caries) [3, 16]: 0.7 ± 0.2; Average caries score (± S.E.), Ds (slight dental caries) [3, 16]: 3.9 ± 0.6; Average caries score (± S.E.), Dx (extensive dental caries) [3, 16]: 0.2 ± 0.2; Inhibition rate of dental caries, Dm (moderate dental caries) [3, 16]: 82.9%; Inhibition rate of dental caries, Ds (slight dental caries) [3, 16]: 54.7%; Inhibition rate of dental caries, Dx (extensive dental caries) [3, 16]: 93.8%; Dental caries inhibitory effect (in words) ([3]; Tables 3 and 4): excellent dental caries inhibitory effect; Inhibition rate of dental caries compared with NaF (in words) ([3]; at any severity): extremely superior to that of the composition containing NaF; Inhibition of moderate and extensive dental caries (in words) ([3]; scores of Dm and Dx in Table 3): moderate and extensive dental caries are almost inhibited
6 | O=P([O-])([O-])[O-].[Na+].[Na+].[Na+].[O]=[Mo](=[O])=[O].[O]=[Mo](=[O])=[O].[O]=[Mo](=[O])=[O].[O]=[Mo](=[O])=[O].[O]=[Mo](=[O])=[O].[O]=[Mo](=[O])=[O].[O]=[Mo](=[O])=[O].[O]=[Mo](=[O])=[O].[O]=[Mo](=[O])=[O].[O]=[Mo](=[O])=[O].[O]=[Mo](=[O])=[O].[O]=[Mo](=[O])=[O] [Na3 PO4 . 12MoO3, sodium phosphorus molybdate] | – | – | – | – | 42.20% | 49.90% | 42.42% | 33.21% | 41.11% | 30.78% | 40.94% | 30.85% | –
7 | O.O=P(O)(O)O.[O]=[Mo](=[O])=[O].[O]=[Mo](=[O])=[O].[O]=[Mo](=[O])=[O].[O]=[Mo](=[O])=[O].[O]=[Mo](=[O])=[O].[O]=[Mo](=[O])=[O].[O]=[Mo](=[O])=[O].[O]=[Mo](=[O])=[O].[O]=[Mo](=[O])=[O].[O]=[Mo](=[O])=[O].[O]=[Mo](=[O])=[O].[O]=[Mo](=[O])=[O] [P2 O5 . 24MoO3, phosphomolybdic acid] | 45.22% | 44.82% | 47.39% | 44.61% | 58.32% | – | 52.02% | – | 54.24% | – | 43.12% | – | –
